Literature values in patent US20210338713A1, “Reduction of Pulmonary Inflammation Using Therapeutic Gas Mixtures” (Brain Cancer Research Institute, priority 2020, published 2021).

Legend:
[1] = tested on: ovine model of ARDS; conditions: inhalation, P<0.05
[2] = tested on: pediatric patients with ARDS
[3] = tested on: RDS patients; conditions: surviving patients, six months post-treatment, low-dose iNO
[4] = in combination with oxygen
[5] = in vivo

Structure (SMILES)	arterial PO2 [1]	venous admixture (Qva/QT) ([1]; without altering cardiac output)	pulmonary arterial pressure (PAP) and resistance ([1]; without any systemic hemodynamic effects)	patients with improved oxygenation ([2]; inhaled)	mean pulmonary artery pressure and intrapulmonary shunt ([2]; inhaled, without changing systemic arterial pressure or pulmonary capillary wedge pressure)	survival, patients with ARDS ([2]; low-dose inhaled NO (3 to 10 ppm) for 1 to 24 days, 5 of 10 patients)	survival, non-ARDS patients ([2]; low-dose inhaled NO (3 to 10 ppm) for 1 to 24 days, 7 of 7 patients)	values for select pulmonary function tests versus placebo-treated patients [3]	concentrations at which xenon exhibits anaesthetic effects [4]	toxic effects on main organs [5]
[N]=O [nitric oxide]	increase	decrease	decrease	15 of 17	lowered	50%	100%	significantly better		
[Xe] [xenon]									10-70 vol. %	does not induce significant toxic effects
